{
  "source": "ChEMBL document CHEMBL1158584",
  "about": "“Mono-, di-, and triaryl substituted tetrahydropyrans as cyclooxygenase-2 and tumor growth inhibitors. Synthesis and biological evaluation” (J Med Chem, 2010)",
  "data": [
    {"test_system": "HT-29", "test": "cells", "conditions": "Homo sapiens, HT-29, 48 h, read-out: LC50", "units": {"CC50": "µM"}, "values": [
      {"smiles": "N#CSC[C@@H]1C[C@](O)(c2ccccc2)[C@@H](c2ccccc2)[C@H](c2ccc(F)cc2)O1", "note": "(relative stereo)", "CC50": 46.7}
    ]},
    {"test_system": "KM12", "test": "cells", "conditions": "Homo sapiens, KM12, 48 h", "units": {"GI50": "µM"}, "values": [
      {"smiles": "N#CSC[C@@H]1C[C@](O)(c2ccccc2)[C@@H](c2ccccc2)[C@H](c2ccc(F)cc2)O1", "note": "(relative stereo)", "GI50": 2.34}
    ]},
    {"test_system": "KM12", "test": "cells", "conditions": "Homo sapiens, KM12, 48 h, read-out: LC50", "units": {"CC50": "µM"}, "values": [
      {"smiles": "N#CSC[C@@H]1C[C@](O)(c2ccccc2)[C@@H](c2ccccc2)[C@H](c2ccc(F)cc2)O1", "note": "(relative stereo)", "CC50": 56.2}
    ]},
    {"test_system": "SW-620", "test": "cells", "conditions": "Homo sapiens, SW-620, 48 h", "units": {"GI50": "µM"}, "values": [
      {"smiles": "N#CSC[C@@H]1C[C@](O)(c2ccccc2)[C@@H](c2ccccc2)[C@H](c2ccc(F)cc2)O1", "note": "(relative stereo)", "GI50": 3.66}
    ]},
    {"test_system": "SW-620", "test": "cells", "conditions": "Homo sapiens, SW-620, 48 h, read-out: LC50", "units": {"CC50": "µM"}, "values": [
      {"smiles": "N#CSC[C@@H]1C[C@](O)(c2ccccc2)[C@@H](c2ccccc2)[C@H](c2ccc(F)cc2)O1", "note": "(relative stereo)", "CC50": 57.5}
    ]},
    {"test_system": "SF-539", "test": "cells", "conditions": "Homo sapiens, SF-539, 48 h", "units": {"GI50": "µM"}, "values": [
      {"smiles": "N#CSC[C@@H]1C[C@](O)(c2ccccc2)[C@@H](c2ccccc2)[C@H](c2ccc(F)cc2)O1", "note": "(relative stereo)", "GI50": 5.62}
    ]},
    {"test_system": "SF-539", "test": "cells", "conditions": "Homo sapiens, SF-539, 48 h, read-out: LC50", "units": {"CC50": "µM"}, "values": [
      {"smiles": "N#CSC[C@@H]1C[C@](O)(c2ccccc2)[C@@H](c2ccccc2)[C@H](c2ccc(F)cc2)O1", "note": "(relative stereo)", "CC50": 41.6}
    ]},
    {"test_system": "U-251", "test": "cells", "conditions": "Homo sapiens, U-251, 48 h", "units": {"GI50": "µM"}, "values": [
      {"smiles": "N#CSC[C@@H]1C[C@](O)(c2ccccc2)[C@@H](c2ccccc2)[C@H](c2ccc(F)cc2)O1", "note": "(relative stereo)", "GI50": 3.98}
    ]},
    {"test_system": "U-251", "test": "cells", "conditions": "Homo sapiens, U-251, 48 h, read-out: LC50", "units": {"CC50": "µM"}, "values": [
      {"smiles": "N#CSC[C@@H]1C[C@](O)(c2ccccc2)[C@@H](c2ccccc2)[C@H](c2ccc(F)cc2)O1", "note": "(relative stereo)", "CC50": 57.5}
    ]},
    {"test_system": "LOX IMVI", "test": "cells", "conditions": "Homo sapiens, 48 h", "units": {"GI50": "µM"}, "values": [
      {"smiles": "N#CSC[C@@H]1C[C@](O)(c2ccccc2)[C@@H](c2ccccc2)[C@H](c2ccc(F)cc2)O1", "note": "(relative stereo)", "GI50": 1.65}
    ]},
    {"test_system": "LOX IMVI", "test": "cells", "conditions": "Homo sapiens, 48 h, read-out: LC50", "units": {"CC50": "µM"}, "values": [
      {"smiles": "N#CSC[C@@H]1C[C@](O)(c2ccccc2)[C@@H](c2ccccc2)[C@H](c2ccc(F)cc2)O1", "note": "(relative stereo)", "CC50": 5.75}
    ]},
    {"test_system": "SK-MEL-2", "test": "cells", "conditions": "Homo sapiens, SK-MEL-2, 48 h", "units": {"GI50": "µM"}, "values": [
      {"smiles": "N#CSC[C@@H]1C[C@](O)(c2ccccc2)[C@@H](c2ccccc2)[C@H](c2ccc(F)cc2)O1", "note": "(relative stereo)", "GI50": 1.86}
    ]},
    {"test_system": "SK-MEL-2", "test": "cells", "conditions": "Homo sapiens, SK-MEL-2, 48 h, read-out: LC50", "units": {"CC50": "µM"}, "values": [
      {"smiles": "N#CSC[C@@H]1C[C@](O)(c2ccccc2)[C@@H](c2ccccc2)[C@H](c2ccc(F)cc2)O1", "note": "(relative stereo)", "CC50": 7.93}
    ]},
    {"test_system": "SK-MEL-28", "test": "cells", "conditions": "Homo sapiens, SK-MEL-28, 48 h", "units": {"GI50": "µM"}, "values": [
      {"smiles": "N#CSC[C@@H]1C[C@](O)(c2ccccc2)[C@@H](c2ccccc2)[C@H](c2ccc(F)cc2)O1", "note": "(relative stereo)", "GI50": 3.98}
    ]},
    {"test_system": "SK-MEL-28", "test": "cells", "conditions": "Homo sapiens, SK-MEL-28, 48 h, read-out: LC50", "units": {"CC50": "µM"}, "values": [
      {"smiles": "N#CSC[C@@H]1C[C@](O)(c2ccccc2)[C@@H](c2ccccc2)[C@H](c2ccc(F)cc2)O1", "note": "(relative stereo)", "CC50": 5.75}
    ]},
    {"test_system": "SK-MEL-5", "test": "cells", "conditions": "Homo sapiens, SK-MEL-5, 48 h", "units": {"GI50": "µM"}, "values": [
      {"smiles": "N#CSC[C@@H]1C[C@](O)(c2ccccc2)[C@@H](c2ccccc2)[C@H](c2ccc(F)cc2)O1", "note": "(relative stereo)", "GI50": 5.01}
    ]},
    {"test_system": "SK-MEL-5", "test": "cells", "conditions": "Homo sapiens, SK-MEL-5, 48 h, read-out: LC50", "units": {"CC50": "µM"}, "values": [
      {"smiles": "N#CSC[C@@H]1C[C@](O)(c2ccccc2)[C@@H](c2ccccc2)[C@H](c2ccc(F)cc2)O1", "note": "(relative stereo)", "CC50": 4.16}
    ]},
    {"test_system": "UACC-257", "test": "cells", "conditions": "Homo sapiens, UACC-257, 48 h", "units": {"GI50": "µM"}, "values": [
      {"smiles": "N#CSC[C@@H]1C[C@](O)(c2ccccc2)[C@@H](c2ccccc2)[C@H](c2ccc(F)cc2)O1", "note": "(relative stereo)", "GI50": 3.03}
    ]},
    {"test_system": "UACC-257", "test": "cells", "conditions": "Homo sapiens, UACC-257, 48 h, read-out: LC50", "units": {"CC50": "µM"}, "values": [
      {"smiles": "N#CSC[C@@H]1C[C@](O)(c2ccccc2)[C@@H](c2ccccc2)[C@H](c2ccc(F)cc2)O1", "note": "(relative stereo)", "CC50": 42.6}
    ]},
    {"test_system": "A498", "test": "cells", "conditions": "Homo sapiens, A498, 48 h", "units": {"GI50": "µM"}, "values": [
      {"smiles": "N#CSC[C@@H]1C[C@](O)(c2ccccc2)[C@@H](c2ccccc2)[C@H](c2ccc(F)cc2)O1", "note": "(relative stereo)", "GI50": 18.1}
    ]},
    {"test_system": "A498", "test": "cells", "conditions": "Homo sapiens, A498, 48 h, read-out: LC50", "units": {"CC50": "µM"}, "values": [
      {"smiles": "N#CSC[C@@H]1C[C@](O)(c2ccccc2)[C@@H](c2ccccc2)[C@H](c2ccc(F)cc2)O1", "note": "(relative stereo)", "CC50": "> 100"}
    ]},
    {"test_system": "ACHN", "test": "cells", "conditions": "Homo sapiens, 48 h", "units": {"GI50": "µM"}, "values": [
      {"smiles": "N#CSC[C@@H]1C[C@](O)(c2ccccc2)[C@@H](c2ccccc2)[C@H](c2ccc(F)cc2)O1", "note": "(relative stereo)", "GI50": 3.54}
    ]},
    {"test_system": "ACHN", "test": "cells", "conditions": "Homo sapiens, 48 h, read-out: LC50", "units": {"CC50": "µM"}, "values": [
      {"smiles": "N#CSC[C@@H]1C[C@](O)(c2ccccc2)[C@@H](c2ccccc2)[C@H](c2ccc(F)cc2)O1", "note": "(relative stereo)", "CC50": 38}
    ]},
    {"test_system": "UO-31", "test": "cells", "conditions": "Homo sapiens, UO-31, 48 h", "units": {"GI50": "µM"}, "values": [
      {"smiles": "N#CSC[C@@H]1C[C@](O)(c2ccccc2)[C@@H](c2ccccc2)[C@H](c2ccc(F)cc2)O1", "note": "(relative stereo)", "GI50": 2.13}
    ]},
    {"test_system": "UO-31", "test": "cells", "conditions": "Homo sapiens, UO-31, 48 h, read-out: LC50", "units": {"CC50": "µM"}, "values": [
      {"smiles": "N#CSC[C@@H]1C[C@](O)(c2ccccc2)[C@@H](c2ccccc2)[C@H](c2ccc(F)cc2)O1", "note": "(relative stereo)", "CC50": 54.9}
    ]},
    {"test_system": "PC-3", "test": "cells", "conditions": "Homo sapiens, PC-3, 48 h", "units": {"GI50": "µM"}, "values": [
      {"smiles": "N#CSC[C@@H]1C[C@](O)(c2ccccc2)[C@@H](c2ccccc2)[C@H](c2ccc(F)cc2)O1", "note": "(relative stereo)", "GI50": 2.81}
    ]},
    {"test_system": "PC-3", "test": "cells", "conditions": "Homo sapiens, PC-3, 48 h, read-out: LC50", "units": {"CC50": "µM"}, "values": [
      {"smiles": "N#CSC[C@@H]1C[C@](O)(c2ccccc2)[C@@H](c2ccccc2)[C@H](c2ccc(F)cc2)O1", "note": "(relative stereo)", "CC50": "> 100"}
    ]},
    {"test_system": "DU-145", "test": "cells", "conditions": "Homo sapiens, DU-145, 48 h", "units": {"GI50": "µM"}, "values": [
      {"smiles": "N#CSC[C@@H]1C[C@](O)(c2ccccc2)[C@@H](c2ccccc2)[C@H](c2ccc(F)cc2)O1", "note": "(relative stereo)", "GI50": 2.18}
    ]},
    {"test_system": "DU-145", "test": "cells", "conditions": "Homo sapiens, DU-145, 48 h, read-out: LC50", "units": {"CC50": "µM"}, "values": [
      {"smiles": "N#CSC[C@@H]1C[C@](O)(c2ccccc2)[C@@H](c2ccccc2)[C@H](c2ccc(F)cc2)O1", "note": "(relative stereo)", "CC50": 13.4}
    ]},
    {"test_system": "MCF7", "test": "cells", "conditions": "Homo sapiens, MCF7, 48 h", "units": {"GI50": "µM"}, "values": [
      {"smiles": "N#CSC[C@@H]1C[C@](O)(c2ccccc2)[C@@H](c2ccccc2)[C@H](c2ccc(F)cc2)O1", "note": "(relative stereo)", "GI50": 2.75}
    ]},
    {"test_system": "MCF7", "test": "cells", "conditions": "Homo sapiens, MCF7, 48 h, read-out: LC50", "units": {"CC50": "µM"}, "values": [
      {"smiles": "N#CSC[C@@H]1C[C@](O)(c2ccccc2)[C@@H](c2ccccc2)[C@H](c2ccc(F)cc2)O1", "note": "(relative stereo)", "CC50": "> 100"}
    ]}
  ]
}
